Reference: ChEMBL document CHEMBL1201862, “PubChem BioAssay data set” (2004)
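Method: 48-hour compound exposure of cells in 96-well plates, five concentrations, linear interpolation of endpoints. GI50 is the concentration that inhibits growth by half.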 Calls of active or inactive are those of the source. No stated cut-off is given here; in the data, active = GI50 up to about 1.1 µM and inactive = higher. Positions of bridges follow the written chain, without caps; N, C: chain ends. Where a SMILES comes first, the peptide text is derived from it. Non-standard residues stand in square brackets, D forms with d. Residues, ends and D or L forms follow the SMILES beside them. The star is where a group is joined. ξ: configuration not given here. *: point of attachment. X28 = O=C(/C=C/C=C/C=C/C=C/C=C/C(=O)*)NC1=C(O)CCC1=O; Pro(4R-Me) = C[C@H]1CN[C@H](C(=O)O)C1; NMeA = CN[C@@H](C)C(=O)O; ξF = NC(Cc1ccccc1)C(=O)O; Cbz = O=C(OCc1ccccc1)*; ξA = CC(N)C(=O)O

Assays:
Test in all cases: growth of human tumour cells (NCI), 48 h
HL-60 = system: HL-60
A498 = system: A498
PC-3 = system: PC-3
OVCAR-4 = system: OVCAR-4
SNB-19 = system: SNB-19
NCI-H226 = system: NCI-H226
M14 = system: M14
MCF7 = system: MCF7
U-251 = system: U-251
EKVX = system: EKVX
COLO 205 = system: COLO 205
SK-OV-3 = system: SK-OV-3
MDA-N = system: MDA-N
SR = system: SR
DU-145 = system: DU-145
SF-539 = system: SF-539
OVCAR-5 = system: OVCAR-5
MDA-MB-231 = system: MDA-MB-231
UO-31 = system: UO-31
HCC 2998 = system: HCC 2998

| SMILES | GI50 (HL-60) | GI50 (A498) | GI50 (PC-3) | GI50 (OVCAR-4) | GI50 (SNB-19) | GI50 (NCI-H226) | GI50 (M14) | GI50 (MCF7) | GI50 (U-251) | GI50 (EKVX) | GI50 (COLO 205) | GI50 (SK-OV-3) | GI50 (MDA-N) | GI50 (SR) | GI50 (DU-145) | GI50 (SF-539) | GI50 (OVCAR-5) | GI50 (MDA-MB-231) | GI50 (UO-31) | GI50 (HCC 2998) |
| --- | --- | --- | --- | --- | --- | --- | --- | --- | --- | --- | --- | --- | --- | --- | --- | --- | --- | --- | --- | --- |
| COc1ccc(OC)c(-c2cc(C(=O)O)c3cc4ccccc4cc3n2)c1 | > 100 µM (inactive) | > 100 µM (inactive) | > 100 µM (inactive) | > 100 µM (inactive) | > 100 µM (inactive) | 37.3 µM (inactive) | > 100 µM (inactive) | > 100 µM (inactive) | > 100 µM (inactive) | > 100 µM (inactive) | > 100 µM (inactive) | > 100 µM (inactive) | > 100 µM (inactive) | > 100 µM (inactive) | > 100 µM (inactive) | > 100 µM (inactive) | > 100 µM (inactive) | > 100 µM (inactive) |  |  |
| O=C(O)C1Cc2c([nH]c3ccccc23)C(CCCCO)N1 (centres undefined) | > 100 µM (inactive) | > 100 µM (inactive) | > 100 µM (inactive) | > 100 µM (inactive) | > 100 µM (inactive) | > 100 µM (inactive) | > 100 µM (inactive) | > 100 µM (inactive) | > 100 µM (inactive) | > 100 µM (inactive) | > 100 µM (inactive) | > 100 µM (inactive) | > 100 µM (inactive) | > 100 µM (inactive) | > 100 µM (inactive) | > 100 µM (inactive) | > 100 µM (inactive) | > 100 µM (inactive) | > 100 µM (inactive) |  |
| Oc1cccc(-c2cn3cc(C(F)(F)F)ccc3n2)c1 | 32.6 µM (inactive) | 37.5 µM (inactive) | 32.2 µM (inactive) | 22.1 µM (inactive) | 70.1 µM (inactive) | 46.9 µM (inactive) | 39.3 µM (inactive) | 15.4 µM (inactive) | 50.6 µM (inactive) | 17.5 µM (inactive) | 39.2 µM (inactive) | 33.4 µM (inactive) | 35.7 µM (inactive) | 31.6 µM (inactive) | 18.6 µM (inactive) |  | 37.2 µM (inactive) | 43.7 µM (inactive) | 0.338 µM (active) | 22.6 µM (inactive) |
| CCCNC(=O)Cn1c(-c2ccccc2)cc2ccccc21 | > 100 µM (inactive) |  | 41.1 µM (inactive) | 24.4 µM (inactive) | > 100 µM (inactive) | > 100 µM (inactive) | > 100 µM (inactive) | 37.5 µM (inactive) | > 100 µM (inactive) | 30.6 µM (inactive) | > 100 µM (inactive) | 29.4 µM (inactive) | 83.4 µM (inactive) | > 100 µM (inactive) | > 100 µM (inactive) | > 100 µM (inactive) | > 100 µM (inactive) | 32.7 µM (inactive) | > 100 µM (inactive) | > 100 µM (inactive) |
| Cc1ccc2nc(-c3nccn3C)cc(C(=O)NC(C)CN(C)C)c2c1 (centres undefined) | 10.1 µM (inactive) | > 100 µM (inactive) | 25.3 µM (inactive) |  | > 100 µM (inactive) | 98.6 µM (inactive) | > 100 µM (inactive) | 63 µM (inactive) | > 100 µM (inactive) | > 100 µM (inactive) | > 100 µM (inactive) |  | > 100 µM (inactive) | 0.711 µM (active) | > 100 µM (inactive) | 26.1 µM (inactive) | > 100 µM (inactive) | > 100 µM (inactive) | 92.7 µM (inactive) | > 10 µM (inactive) |
| CCOC(=O)c1cn2c(n1)sc1cc(C)c(C)cc12 |  | 17.1 µM (inactive) | 21.2 µM (inactive) | > 100 µM (inactive) | 20 µM (inactive) | 18.9 µM (inactive) | 26.5 µM (inactive) | 23.6 µM (inactive) | 18.6 µM (inactive) | 22.3 µM (inactive) | 26.5 µM (inactive) | 26.5 µM (inactive) | 6.04 µM (inactive) | 6.68 µM (inactive) | 21.4 µM (inactive) | 14.6 µM (inactive) | 16.8 µM (inactive) | 24.3 µM (inactive) | 18.8 µM (inactive) | 66.1 µM (inactive) |
| COC(=O)CCc1ccc2c(c1)C(=O)CC2 | > 100 µM (inactive) | > 100 µM (inactive) | > 100 µM (inactive) | > 100 µM (inactive) | > 100 µM (inactive) |  | > 100 µM (inactive) | > 100 µM (inactive) | > 100 µM (inactive) | > 100 µM (inactive) |  | > 100 µM (inactive) | > 100 µM (inactive) | > 100 µM (inactive) | > 100 µM (inactive) | > 100 µM (inactive) | > 100 µM (inactive) | > 100 µM (inactive) | > 100 µM (inactive) | > 100 µM (inactive) |
| CN(C)CCCNc1ccnc2cc([N+](=O)[O-])ccc12 |  | 17.2 µM (inactive) | 14.1 µM (inactive) | 3.35 µM (inactive) |  | 14.9 µM (inactive) | 12 µM (inactive) | 4.47 µM (inactive) | 23.7 µM (inactive) |  | 2.65 µM (inactive) | 21.2 µM (inactive) | 12.1 µM (inactive) | > 100 µM (inactive) | 27.8 µM (inactive) | 16.3 µM (inactive) | 20.7 µM (inactive) | 13.3 µM (inactive) | 16.9 µM (inactive) |  |
| CC(=O)OCC1OC(Nc2ccc3nc(C)n(-c4cccc(C)c4)c(=O)c3c2)C(OC(C)=O)C(OC(C)=O)C1OC(C)=O (centres undefined) | > 62.5 µM (inactive) | > 62.5 µM (inactive) | > 62.5 µM (inactive) | > 62.5 µM (inactive) | > 62.5 µM (inactive) | > 62.5 µM (inactive) |  | > 62.5 µM (inactive) | > 62.5 µM (inactive) | > 62.5 µM (inactive) | > 62.5 µM (inactive) |  | > 62.5 µM (inactive) | > 62.5 µM (inactive) | > 62.5 µM (inactive) |  | > 62.5 µM (inactive) | > 62.5 µM (inactive) | > 62.5 µM (inactive) | > 62.5 µM (inactive) |
| Cc1cccc(C)c1Nc1nc(C)c(C(=O)CC(=O)C(=O)Nc2c(C(C)C)cccc2C(C)C)s1 | 24.7 µM (inactive) |  | 78.3 µM (inactive) | > 100 µM (inactive) | > 100 µM (inactive) | > 100 µM (inactive) | > 100 µM (inactive) | > 100 µM (inactive) | > 100 µM (inactive) | > 100 µM (inactive) | > 100 µM (inactive) | 89.7 µM (inactive) | > 100 µM (inactive) | 69.3 µM (inactive) | > 100 µM (inactive) | > 100 µM (inactive) | > 100 µM (inactive) | > 100 µM (inactive) | 39.4 µM (inactive) | > 100 µM (inactive) |
| CC1(C)CC[C@]2(C(=O)O)CC[C@]3(C)C(=CC[C@@H]4[C@@]5(C)CC[C@H](OC6OC(CO)C(O)C(O)C6O)C(C)(C)[C@@H]5CC[C@]43C)[C@@H]2C1 (some centres undefined) | 2 µM (inactive) | 2.1 µM (inactive) | 1.6 µM (inactive) | 1.61 µM (inactive) | 1.52 µM (inactive) | 1.77 µM (inactive) | 1.75 µM (inactive) | 2.37 µM (inactive) | 1.68 µM (inactive) | 1.93 µM (inactive) | 1.8 µM (inactive) | 1.75 µM (inactive) | 1.86 µM (inactive) | 2.34 µM (inactive) | 1.98 µM (inactive) |  | 1.9 µM (inactive) | 1.66 µM (inactive) | 1.71 µM (inactive) | 1.59 µM (inactive) |
| CCOC(=O)CCC(NC(=O)C(CC(=O)OC)NC(=O)OCc1ccccc1)C(=O)NC(CC(=O)OC)C(=O)NC(CCC(=O)OCC)C(=O)NC(CC(=O)OC)C(=O)NC(CCC(=O)OCC)C(=O)NC(CC(=O)OCC)C(=O)OCC (centres undefined) (Cbz-D(OMe)E(OEt)D(OMe)E(OEt)D(OMe)E(OEt)D(OEt)-OEt; configuration not given here) | > 100 µM (inactive) | 98.9 µM (inactive) | > 100 µM (inactive) | > 100 µM (inactive) | > 100 µM (inactive) | > 100 µM (inactive) |  | > 100 µM (inactive) | > 100 µM (inactive) |  |  |  | > 100 µM (inactive) | > 100 µM (inactive) | > 100 µM (inactive) |  | > 100 µM (inactive) | > 100 µM (inactive) | > 100 µM (inactive) | > 100 µM (inactive) |
| CC1NC(=O)[C@H](C)N(C)C(=O)[C@@H]2CCCN2C(=O)[C@@H](NC(=O)C(Cc2ccccc2)NC(=O)/C=C/C=C/C=C/C=C/C=C/C(=O)NC2=C(O)CCC2=O)COC(=O)[C@@H]2C[C@@H](C)CN2C1=O (stereo partly drawn) (X28-[ξF]SP[NMeA][ξA][Pro(4R-Me)]; ester 2-C) | > 100 µM (inactive) | > 100 µM (inactive) | > 100 µM (inactive) | > 100 µM (inactive) | > 100 µM (inactive) |  | > 100 µM (inactive) | > 100 µM (inactive) | > 100 µM (inactive) | > 100 µM (inactive) | > 100 µM (inactive) | > 100 µM (inactive) | > 100 µM (inactive) | > 100 µM (inactive) | > 100 µM (inactive) | > 100 µM (inactive) | > 100 µM (inactive) | > 100 µM (inactive) | > 100 µM (inactive) | > 100 µM (inactive) |
| O=C(NCP(=O)(O)O)c1cccnc1 [(NICOTINAMIDOMETHYL)PHOSPHONIC ACID] | > 100 µM (inactive) | > 100 µM (inactive) | > 100 µM (inactive) | > 100 µM (inactive) | > 100 µM (inactive) | > 100 µM (inactive) | > 100 µM (inactive) | > 100 µM (inactive) | > 100 µM (inactive) | > 100 µM (inactive) | > 100 µM (inactive) | > 100 µM (inactive) | > 100 µM (inactive) | > 100 µM (inactive) | > 100 µM (inactive) | > 100 µM (inactive) | > 100 µM (inactive) | > 100 µM (inactive) | > 100 µM (inactive) |  |
